Measurements as given in US6447748B1, “Benzamide compounds for cancer imaging and therapy” (Research Corporation Technologies, Inc., priority 1993, dated 2002).
“And” between values parts separate entries of the source, which are not always exact repeats. Equal values may be shown once. Read-outs that look alike come from different tables or passages of the source.

How the values were obtained:
[1] = for Biodistribution Blood / Biodistribution Bone / Biodistribution Brain / Biodistribution Gonads / Biodistribution Heart / Biodistribution Kidney / Biodistribution Liver / Biodistribution Lunq / Biodistribution Muscle / Biodistribution Spleen / Biodistribution Thyroid: Wistar male rats, average of four rats
Experimental: Male Wistar rats (200-230g), while under anesthesia, were injected intravenously with 0.1 ml of a saline solution containing 20% ethanol solution of 4-[^125I]BP (4-5 μCi). At 1, 4, 6 and 24 hr. after injection, blood samples were collected by cardiac puncture and the […] were sacrificed immediately thereafter by cardiectomy while under anesthesia. The organs of interest were subsequently excised, blotted with tissue paper, weighed, and the radioactivity was counted using a Packard automatic counter (autogamma 5650). The % injected dose/g (% ID/g) values were determined by comparison of tissue radioactivities with suitably diluted aliquots of the injected 4-[^125I]BP dose divided by the weight of the organ.

[2] = Biodistribution of 2-[125I]BP and 3-[125I]BP in Sprague Dawley rats; format: in vivo; details: for Biodistribution Blood / Biodistribution Brain / Biodistribution Heart / Biodistribution Kidney / Biodistribution Liver / Biodistribution Lung / Biodistribution Muscle / Biodistribution Spleen / Biodistribution Thyroid: average of four rats
Experimental: A similar procedure was performed with 2-[^125I]BP and 3-[^125I]BP but blood samples were only collected at 1, 6 and 24 hours.

O=C(NC1CCN(Cc2ccccc2)CC1)c1ccc([125I])cc1 [4-[^125I]BP, ^125I-(N-Benzylpiperidin-4-yl)-4-iodobenzamide]
Biodistribution Blood ([1]; 1 hr.): 0.04 ± 0.00 % ID/g
Biodistribution Bone ([1]; 1 hr.): 0.24 ± 0.01 % ID/g
Biodistribution Brain ([1]; 1 hr.): 1.24 ± 0.13 % ID/g
Biodistribution Gonads ([1]; 1 hr.): 0.39 ± 0.03 % ID/g
Biodistribution Heart ([1]; 1 hr.): 0.75 ± 0.05 % ID/g
Biodistribution Kidney ([1]; 1 hr.): 2.10 ± 0.15 % ID/g
Biodistribution Liver ([1]; 1 hr.): 4.77 ± 0.13 % ID/g
Biodistribution Lunq ([1]; 1 hr.): 5.05 ± 0.26 % ID/g
Biodistribution Muscle ([1]; 1 hr.): 0.24 ± 0.02 % ID/g
Biodistribution Spleen ([1]; 1 hr.): 1.60 ± 0.10 % ID/g
Biodistribution Thyroid ([1]; 1 hr.): 0.07 ± 0.01 % ID/g
Biodistribution Blood ([1]; 4 hr.): 0.02 ± 0.00 % ID/g
Biodistribution Bone ([1]; 4 hr.): 0.24 ± 0.05 % ID/g
Biodistribution Brain ([1]; 4 hr.): 1.29 ± 0.05 % ID/g
Biodistribution Gonads ([1]; 4 hr.): 0.30 ± 0.02 % ID/g
Biodistribution Heart ([1]; 4 hr.): 0.74 ± 0.04 % ID/g
Biodistribution Kidney ([1]; 4 hr.): 2.05 ± 0.02 % ID/g
Biodistribution Liver ([1]; 4 hr.): 7.76 ± 0.36 % ID/g
Biodistribution Lunq ([1]; 4 hr.): 5.22 ± 0.78 % ID/g
Biodistribution Muscle ([1]; 4 hr.): 0.20 ± 0.02 % ID/g
Biodistribution Spleen ([1]; 4 hr.): 1.51 ± 0.19 % ID/g
Biodistribution Thyroid ([1]; 4 hr.): 0.12 ± 0.00 % ID/g
Biodistribution Blood ([1]; 6 hr.): 0.04 ± 0.00 % ID/g
Biodistribution Bone ([1]; 6 hr.): 0.44 ± 0.03 % ID/g
Biodistribution Brain ([1]; 6 hr.): 1.23 ± 0.08 % ID/g
Biodistribution Gonads ([1]; 6 hr.): 0.34 ± 0.01 % ID/g
Biodistribution Heart ([1]; 6 hr.): 0.75 ± 0.02 % ID/g
Biodistribution Kidney ([1]; 6 hr.): 2.10 ± 0.08 % ID/g
Biodistribution Liver ([1]; 6 hr.): 7.20 ± 0.40 % ID/g
Biodistribution Lunq ([1]; 6 hr.): 4.85 ± 0.17 % ID/g
Biodistribution Muscle ([1]; 6 hr.): 0.12 ± 0.02 % ID/g
Biodistribution Spleen ([1]; 6 hr.): 1.57 ± 0.12 % ID/g
Biodistribution Thyroid ([1]; 6 hr.): 0.23 ± 0.05 % ID/g
Biodistribution Blood ([1]; 24 hr.): 0.02 ± 0.00 % ID/g
Biodistribution Bone ([1]; 24 hr.): 0.47 ± 0.07 % ID/g
Biodistribution Brain ([1]; 24 hr.): 1.24 ± 0.06 % ID/g
Biodistribution Gonads ([1]; 24 hr.): 0.34 ± 0.01 % ID/g
Biodistribution Heart ([1]; 24 hr.): 0.65 ± 0.03 % ID/g
Biodistribution Kidney ([1]; 24 hr.): 1.54 ± 0.05 % ID/g
Biodistribution Liver ([1]; 24 hr.): 5.37 ± 0.53 % ID/g
Biodistribution Lunq ([1]; 24 hr.): 3.70 ± 0.38 % ID/g
Biodistribution Muscle ([1]; 24 hr.): 0.12 ± 0.01 % ID/g
Biodistribution Spleen ([1]; 24 hr.): 1.47 ± 0.28 % ID/g
Biodistribution Thyroid ([1]; 24 hr.): 0.29 ± 0.04 % ID/g
clearance from the blood pool ([1]; Wistar rats): cleared quickly
crossing of the blood brain barrier ([1]; Wistar rats, retained in the brain after 24 hours): crossed the blood brain barrier
in vivo dehalogenation (thyroid activity after 24 hours) ([1]; rat, in vivo): no in vivo dehalogenation

O=C(NC1CCN(Cc2ccccc2)CC1)c1ccccc1[125I] [2-[^125I]BP, ^125I-(N-benzylpiperidin-4-yl)-2-iodobenzamide]
clearance [2]: fast clearance from the blood and normal organs
Biodistribution Blood ([2]; 1 hr.): 2.06 ± 0.42 % ID/whole organ
Biodistribution Brain ([2]; 1 hr.): 0.48 ± 0.12 % ID/whole organ
Biodistribution Heart ([2]; 1 hr.): 0.17 ± 0.03 % ID/whole organ
Biodistribution Kidney ([2]; 1 hr.): 1.68 ± 0.08 % ID/whole organ
Biodistribution Liver ([2]; 1 hr.): 22.36 ± 1.29 % ID/whole organ
Biodistribution Lung ([2]; 1 hr.): 1.06 ± 0.21 % ID/whole organ
Biodistribution Muscle ([2]; 1 hr.): 16.15 ± 2.13 % ID/whole organ
Biodistribution Spleen ([2]; 1 hr.): 0.32 ± 0.07 % ID/whole organ
Biodistribution Thyroid ([2]; 1 hr.): 0.14 ± 0.04 % ID/whole organ
Biodistribution Blood ([2]; 6 hr.): 1.30 ± 0.12 % ID/whole organ
Biodistribution Brain ([2]; 6 hr.): 0.05 ± 0.01 % ID/whole organ
Biodistribution Heart ([2]; 6 hr.): 0.05 ± 0.00 % ID/whole organ
Biodistribution Kidney ([2]; 6 hr.): 0.39 ± 0.06 % ID/whole organ
Biodistribution Liver ([2]; 6 hr.): 6.07 ± 0.18 % ID/whole organ
Biodistribution Lung ([2]; 6 hr.): 0.21 ± 0.02 % ID/whole organ
Biodistribution Muscle ([2]; 6 hr.): 6.75 ± 0.32 % ID/whole organ
Biodistribution Spleen ([2]; 6 hr.): 0.12 ± 0.01 % ID/whole organ
Biodistribution Thyroid ([2]; 6 hr.): 1.91 ± 0.23 % ID/whole organ
Biodistribution Blood ([2]; 24 hr.): 0.50 ± 0.05 % ID/whole organ
Biodistribution Brain ([2]; 24 hr.): 0.01 ± 0.00 % ID/whole organ
Biodistribution Heart ([2]; 24 hr.): 0.01 ± 0.00 % ID/whole organ
Biodistribution Kidney ([2]; 24 hr.): 0.05 ± 0.01 % ID/whole organ
Biodistribution Liver ([2]; 24 hr.): 0.59 ± 0.02 % ID/whole organ
Biodistribution Lung ([2]; 24 hr.): 0.04 ± 0.00 % ID/whole organ
Biodistribution Muscle ([2]; 24 hr.): 1.95 ± 0.11 % ID/whole organ
Biodistribution Spleen ([2]; 24 hr.): 0.02 ± 0.00 % ID/whole organ
Biodistribution Thyroid ([2]; 24 hr.): 2.11 ± 0.35 % ID/whole organ

O=C(NC1CCN(Cc2ccccc2)CC1)c1cccc([125I])c1 [3-[^125I]BP, ^125I-(N-Benzylpiperidin-4-yl)-3-iodobenzamide]
clearance [2]: fast clearance from the blood
Biodistribution Blood ([2]; 1 hr.): 0.75 % ID/whole organ and 0.75 ± 0.05 % ID/whole organ
Biodistribution Brain ([2]; 1 hr.): 0.61 ± 0.04 % ID/whole organ
Biodistribution Heart ([2]; 1 hr.): 0.15 ± 0.01 % ID/whole organ
Biodistribution Kidney ([2]; 1 hr.): 3.49 ± 0.23 % ID/whole organ
Biodistribution Liver ([2]; 1 hr.): 13.35 ± 0.62 % ID/whole organ
Biodistribution Lung ([2]; 1 hr.): 0.82 ± 0.07 % ID/whole organ
Biodistribution Muscle ([2]; 1 hr.): 9.36 ± 0.58 % ID/whole organ
Biodistribution Spleen ([2]; 1 hr.): 0.47 ± 0.02 % ID/whole organ
Biodistribution Thyroid ([2]; 1 hr.): 0.13 ± 0.02 % ID/whole organ
Biodistribution Blood ([2]; 6 hr.): 0.55 ± 0.13 % ID/whole organ
Biodistribution Brain ([2]; 6 hr.): 0.53 ± 0.26 % ID/whole organ
Biodistribution Heart ([2]; 6 hr.): 0.07 ± 0.01 % ID/whole organ
Biodistribution Kidney ([2]; 6 hr.): 2.25 ± 0.16 % ID/whole organ
Biodistribution Liver ([2]; 6 hr.): 9.06 ± 0.71 % ID/whole organ
Biodistribution Lung ([2]; 6 hr.): 0.43 ± 0.05 % ID/whole organ
Biodistribution Muscle ([2]; 6 hr.): 1.23 ± 0.49 % ID/whole organ
Biodistribution Spleen ([2]; 6 hr.): 0.37 ± 0.05 % ID/whole organ
Biodistribution Thyroid ([2]; 6 hr.): 0.53 ± 0.26 % ID/whole organ
Biodistribution Blood ([2]; 24 hr.): 0.52 ± 0.05 % ID/whole organ
Biodistribution Brain ([2]; 24 hr.): 0.81 ± 0.07 % ID/whole organ
Biodistribution Heart ([2]; 24 hr.): 0.15 ± 0.01 % ID/whole organ
Biodistribution Kidney ([2]; 24 hr.): 1.75 ± 0.13 % ID/whole organ
Biodistribution Liver ([2]; 24 hr.): 6.65 ± 1.63 % ID/whole organ
Biodistribution Lung ([2]; 24 hr.): 1.05 ± 0.04 % ID/whole organ
Biodistribution Muscle ([2]; 24 hr.): 03.7 ± 0.44 % ID/whole organ
Biodistribution Spleen ([2]; 24 hr.): 0.65 ± 0.08 % ID/whole organ
Biodistribution Thyroid ([2]; 24 hr.): 3.43 ± 0.21 % ID/whole organ
